Calls of active or inactive are those of the source. The calls are words filed in the database; no cut-off is given here.
These compounds were tested against T1, Opioid receptor (Rattus norvegicus) (UniProt P33533+P34975+P33535) (assay: Displacement of specific [3H]dihydromorphine from opiate receptor in rat brain homogenates at 10^-5 M after 10 mins by scintillation counting).
T1 sequence (P33533 whole entry, looked up): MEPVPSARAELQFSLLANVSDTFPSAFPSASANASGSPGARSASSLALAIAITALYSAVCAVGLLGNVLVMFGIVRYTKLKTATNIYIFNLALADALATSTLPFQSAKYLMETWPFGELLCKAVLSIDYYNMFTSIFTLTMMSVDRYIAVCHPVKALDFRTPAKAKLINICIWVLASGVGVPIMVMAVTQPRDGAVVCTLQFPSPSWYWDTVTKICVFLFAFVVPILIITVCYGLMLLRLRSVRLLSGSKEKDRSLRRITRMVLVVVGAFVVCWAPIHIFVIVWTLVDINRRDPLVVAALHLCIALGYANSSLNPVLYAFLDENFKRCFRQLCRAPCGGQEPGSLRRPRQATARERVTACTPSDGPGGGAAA
T1 sequence (P33535 whole entry, looked up): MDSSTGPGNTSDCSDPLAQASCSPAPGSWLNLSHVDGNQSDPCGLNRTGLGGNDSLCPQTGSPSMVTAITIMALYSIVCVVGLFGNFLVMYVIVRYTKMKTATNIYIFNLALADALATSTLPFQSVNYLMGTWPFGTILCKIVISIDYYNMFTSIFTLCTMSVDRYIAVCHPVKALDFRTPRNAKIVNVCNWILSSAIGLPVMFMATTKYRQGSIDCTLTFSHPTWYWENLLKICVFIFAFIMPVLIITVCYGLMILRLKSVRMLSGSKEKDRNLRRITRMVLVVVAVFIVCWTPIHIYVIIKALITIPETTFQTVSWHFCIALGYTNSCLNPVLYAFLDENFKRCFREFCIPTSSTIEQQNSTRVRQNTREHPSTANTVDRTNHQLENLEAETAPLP
T1 sequence (P34975 whole entry, looked up): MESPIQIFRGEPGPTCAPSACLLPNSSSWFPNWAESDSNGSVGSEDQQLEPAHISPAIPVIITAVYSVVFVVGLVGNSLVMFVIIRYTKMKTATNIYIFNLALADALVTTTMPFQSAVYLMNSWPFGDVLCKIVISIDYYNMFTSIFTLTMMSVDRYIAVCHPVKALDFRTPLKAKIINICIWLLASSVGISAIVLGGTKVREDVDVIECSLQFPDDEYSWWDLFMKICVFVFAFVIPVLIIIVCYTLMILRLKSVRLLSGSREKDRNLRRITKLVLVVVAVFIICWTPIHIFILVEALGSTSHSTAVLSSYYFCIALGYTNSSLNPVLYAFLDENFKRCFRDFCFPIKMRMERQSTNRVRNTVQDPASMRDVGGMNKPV
Format: tissue-based
`CCCCCC[C@H]1CN(C)CC[C@]1(OC(=O)CC)c1ccccc1.Cl` (relative stereo) was tested, and the inhibition was “Active”.

Each compound was assayed on Mus musculus (assay: Analgesic activity in sc dosed mouse by hot plate method).
Format: functional
Compound `C=CCC1CN(C)CCC1(OC(=O)CC)c1ccccc1.Cl` (configuration not stated) has an ED50 of 0.03 mg/kg.
Compound `CCC(=O)O[C@]1(c2ccccc2)CCN(C)C[C@@H]1CC.Cl` (relative stereo) has an ED50 of 0.4 mg/kg.
`CCC(=O)O[C@]1(c2ccccc2)CCN(C)C[C@@H]1C.Cl` (relative stereo) showed an ED50 of 0.92 mg/kg.
Compound `CCC(=O)O[C@]1(c2ccccc2)CCN(C)C[C@H]1C.Cl` (relative stereo) has an ED50 of 0.18 mg/kg.
`CCC(=O)O[C@]1(c2ccccc2)CCN(C)C[C@H]1CC.Cl` (relative stereo) was tested, and the ED50 was 3.5 mg/kg.
With `C=CC[C@H]1CN(C)CC[C@]1(OC(=O)CC)c1ccccc1.Cl` (relative stereo) the ED50 was 0.09 mg/kg.
`C=CC[C@@H]1CN(C)CC[C@]1(OC(=O)CC)c1ccccc1.Cl` (relative stereo) was tested, and the ED50 was 11.7 mg/kg.
In the case of `CCCCCC[C@H]1CN(C)CC[C@]1(OC(=O)CC)c1ccccc1.Cl` (relative stereo), the ED50 is reported as 80 mg/kg.
`CCCCCC[C@@H]1CN(C)CC[C@]1(OC(=O)CC)c1ccccc1.Cl` (relative stereo) was tested, and the ED50 was 54.4 mg/kg.
Work on `CN1CC[C@]23c4c5ccc(O)c4O[C@H]2[C@@H](O)C=C[C@H]3[C@H]1C5.Cl` [MORPHINE HYDROCHLORIDE] yielded an ED50 of 1.2 mg/kg.

Each compound was assayed against T1, Opioid receptor (Rattus norvegicus) (assay: Displacement of nonspecific [3H]dihydromorphine from opiate receptor in rat brain homogenates at 10^-5 M after 10 mins by scintillation counting).
Format: tissue-based
With `CCCCCC[C@H]1CN(C)CC[C@]1(OC(=O)CC)c1ccccc1.Cl` (relative stereo) the inhibition was “Active”.
